Test results taken from patent US4178371A, “Tetrapeptide derivatives” (Reckitt & Colman Products Limited, priority 1977, dated 1979).

Experiments:
[1] = tested on: rat; test: rat tail flick test (R.T.F.), intravenous administration; assay type: in vivo; details: hot water 55° as nociceptive stimulus, i.v.
Method: (§1) J. Pharmacol, and Chemotherapy 33. 266-276 (1968). […] 13, 266 (1963).
In the rat tail flick test hot water (maintained at 55°±1°C.) is used as the nociceptive stimulus.

[2] = tested on: opiate receptor sites; details: isolated guinea pig ileum twitch response, dose response curve compared with Met enkephalin
Description: The test used for the detection of their agonist activity at opiate receptor sites is that employing the transmurally stimulates guinea pig ileum preparation described in Kosterlitz et al., Brit. J. Pharmacol, and Chemotherapy 33. 266-276 (1968). […] Exp. Ther. 125, 237 (1959) and by the rat tail flick test (intravenous administration) according to Jansen et al., Arzneim Forsch. 13, 266 (1963).
In the above mentioned test method of Kosterlitz et al male or female guinea pigs (Duncan Hartley strain) are killed by a blow on the head and a portion of the ileum removed and set up in an isolated organ bath of 50 ml volume. A `twitch` response is produced by low frequency (0.1 Hz) stimulation with 0.5 msec rectilinear pulses. A test compound is dissolved in distilled water to produce a stock solution of concentration 1 mg/ml. Serial dilutions are carried out using Krebs solution to produce concentrations of 10 μg, 1 μg and 0.1 μg/ml. The compound is tested by adding between 0.1-0.3 ml of the solutions to the organ bath. A dose response curve is then drawn and compared with that for Met enkephalin.

[3] = tested on: mouse; test: mouse phenyl-quinone anti writhing test of Hendershot et al (H & F); assay type: in vivo; details: i.v.
Description: as §1

Row | Compound | R.T.F. ED50 [1] [mg/kg] | G.P.I. Potency (X Met enkephalin) [2] [X Met enkephalin] | H & F ED50 [3] [mg/kg]
1 | C[C@@H](NC(=O)[C@@H](N)Cc1ccc(O)cc1)C(=O)NCC(=O)N(C)[C@@H](Cc1ccccc1)C(=O)NCCN [Example 6, L-Tyrosyl-D-alanylglycyl-N-methyl-L-phenylalanine-2-aminoethylamide] | 0.37 | 13.0 | 0.028
2 | C[C@@H](NC(=O)[C@@H](N)Cc1ccc(O)cc1)C(=O)NCC(=O)N(C)[C@@H](Cc1ccccc1)C(=O)NCCCN(C)C [Example 2, L-Tyrosyl-D-alanylglycyl-N-methyl-L-phenylalanine-3-dimethylaminopropylamide] | 2.0 | 7.2 | 0.28
3 | C[C@@H](NC(=O)[C@@H](N)Cc1ccc(O)cc1)C(=O)NCC(=O)N(C)[C@@H](Cc1ccccc1)C(=O)NCCN(C)C [Example 4, L-Tyrosyl-D-alanylglycyl-N-methyl-L-phenylalanine-2-dimethylaminoethylamide] | 1.4 | 8.5 | 0.003
4 | C[C@@H](NC(=O)[C@@H](N)Cc1ccc(O)cc1)C(=O)NCC(=O)N(C)[C@@H](Cc1ccccc1)C(=O)NCCCC(=O)N(C)c1ccccc1 [Example 19, HTyrDAlaGlyMePheNH(CH2)3 CONMePh] | – | 23.2 | –
5 | C[C@@H](NC(=O)[C@@H](N)Cc1ccc(O)cc1)C(=O)NCC(=O)N(C)[C@@H](Cc1ccccc1)C(=O)NCC[N+](C)(C)[O-] [Example 22, HTyrDAlaGlyMePheNH(CH 2)2 N(O)Me2] | – | 6.5 | –
6 | CC(=O)NCCNC(=O)[C@H](Cc1ccccc1)NC(=O)CNC(=O)[C@@H](C)NC(=O)[C@@H](N)Cc1ccc(O)cc1 [Example 1, L-Tyrosyl-D-alanylglycyl-L-phenylalanin-2-acetamidoethylamide] | – | 2.6 | 0.01
